Here are results for one molecule from patent US8481595B2, “Compounds for the treatment of metabolic disorders” (Wellstat Therapeutics Corporation, priority 2008, dated 2013).

In this experiment the test system is db/db mice. As to the kind of experiment: Antidiabetic effects in db/db mice (serum chemistry after 2 weeks of daily oral dosing). The class given is in vivo. The text has this: Db/db mice have a defect in leptin signaling, leading to hyperphagia, obesity and diabetes. Moreover, unlike ob/ob mice on a C57BL/6J background, db/db mice on a C57BLKS background undergo failure of their insulin-producing pancreatic islet cells, resulting in progression from hyperinsulinemia (associated with peripheral insulin resistance) to hypoinsulinemic diabetes.
Male obese (db/db homozygote) C57BL/Ksola mice approximately 8 weeks of age, were obtained from Jackson Labs (Bar Harbor, Me.) and randomly assigned into groups of 5-7 animals such that the body weights (40-45 g) and serum glucose levels (≧300 mg/dl in fed state) were similar between groups; male lean (db/+heterozygote) mice served as cohort controls. A minimum of 7 days was allowed for adaptation after arrival. All animals were maintained under controlled temperature (23° C.), relative humidity (50±5%) and light (7:0-19:00), and allowed free access to standard chow (Formulab Diet 5008, Quality Lab Products, Elkridge, Md.) and water.
Mice received daily oral doses of vehicle or Compound DP (100 mg/kg/day) for 2 weeks. At the end of the treatment period 100 μl of venous blood was withdrawn in a heparinized capillary tube from the retro-orbital sinus for serum chemistry analysis.

Where [1] appears, read: db/db mice, after 2 weeks of daily oral dosing, 100 mg/kg/day.

On to `Cc1cccc(C)c1C(=O)Oc1cccc(C(=O)CCC(=O)O)c1` [Compound DP, 4-(3-(2,6-Dimethylbenzoyloxy)phenyl)-4-oxobutanoic acid], for which, under setting [1], the “reduction in serum glucose (in words)” value is reported as “significant reduction” and the “reduction in serum triglycerides (in words)” value is recorded as “significant reduction”. Besides, the “Triglycerides (serum)” value (male db/db C57BL/Ksola mice, 100 mg/kg/day oral, 2 weeks, vehicle 388.0 ± 50.7, lean 96.4 ± 6.4, *p < 0.05 vs vehicle-control) is 140.8 ± 20.6* mg/dL. Besides, where the note is “male db/db C57BL/Ksola mice, 100 mg/kg/day oral, 2 weeks, vehicle 752.9 ± 46.0, lean 212.6 ± 15.3, *p < 0.05 vs vehicle-control”, the “Glucose (serum)” value was 264.3 ± 96.8* mg/dL.
